The values below come from patent US11098060B2, “Macrocycle containing aminopyrazole and pyrimidine and pharmaceutical composition and use thereof” (CHIA TAI TIANQING PHARMACEUTICAL GROUP CO., LTD., priority 2017, dated 2021).

Series [1] in a line: Pharmacokinetic assay in rats, oral. In kind it is in vivo. As to conditions: rat, male SD rats, 5 mg/kg single intragastric administration, plasma. How it is done:
Male SD rats were available from Beijing Vital River Laboratory Animal Technology Co., Ltd. The rats were allocated with three rats per group, and orally administered the suspension of a sample to be tested (5 mg/kg, the suspension is a mixed solution of 10% EtOH, 40% PEG 400 and 50% H2O) by single intragastric administration, respectively. Before the experiment, the animals were fasted overnight, and the fasting time was from 10 hrs before administration to 4 hrs after administration. After administration, a blood sample was taken at 0.25 hr, 0.5 hr, 1 hr, 2 hrs, 4 hrs, 6 hrs, 8 hrs and 24 hrs, respectively. After the animals were narcotized with isoflurane using an anaesthesia machine for small animals, 0.3 mL of whole blood was taken from fundus venous plexus, and placed in a heparin anticoagulant tube. At 4° C., the sample was centrifuged at 4000 rpm for 5 min, and plasma was transferred to a centrifuge tube and preserved at −80° C. until the analysis was started. The sample in plasma was extracted by the protein precipitation method, and the extracted liquid was analyzed by LC/MS/MS.

A further series addresses TrkA^WT kinase (Homo sapiens (Human), UniProt P04629). Kind of series: Assay for inhibitory activity (IC50) against TrkA^WT (HTRF). In kind it is biochemical. As to conditions: TrkA 1 nM, ATP 40 μM, TK peptide 1 μM, 60 min at 23° C. A general note: Time-resolved FRET reads energy transfer from a long-lived donor to a nearby acceptor.
Series [2] deals with TrkA^G595R (Kinase domain) kinase (Homo sapiens (Human), UniProt P04629, G595R). Kind of series: Assay for inhibitory activity (IC50) against TrkA^G595R kinase (HTRF). The format is biochemical. As to conditions: kinase 0.2 nM, TK peptide 1 μM, 120 min at 23° C.
Chain of TrkA^G595R (Kinase domain) kinase (P04629 510-781 G595R): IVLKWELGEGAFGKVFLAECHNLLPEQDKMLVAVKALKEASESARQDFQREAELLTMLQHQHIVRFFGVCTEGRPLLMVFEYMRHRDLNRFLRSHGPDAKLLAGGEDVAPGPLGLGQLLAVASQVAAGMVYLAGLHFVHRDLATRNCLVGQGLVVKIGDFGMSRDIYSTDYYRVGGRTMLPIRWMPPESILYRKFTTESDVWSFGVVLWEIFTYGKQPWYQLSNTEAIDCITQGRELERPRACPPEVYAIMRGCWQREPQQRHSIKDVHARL

Chain of TrkA^WT kinase (P04629 33-796): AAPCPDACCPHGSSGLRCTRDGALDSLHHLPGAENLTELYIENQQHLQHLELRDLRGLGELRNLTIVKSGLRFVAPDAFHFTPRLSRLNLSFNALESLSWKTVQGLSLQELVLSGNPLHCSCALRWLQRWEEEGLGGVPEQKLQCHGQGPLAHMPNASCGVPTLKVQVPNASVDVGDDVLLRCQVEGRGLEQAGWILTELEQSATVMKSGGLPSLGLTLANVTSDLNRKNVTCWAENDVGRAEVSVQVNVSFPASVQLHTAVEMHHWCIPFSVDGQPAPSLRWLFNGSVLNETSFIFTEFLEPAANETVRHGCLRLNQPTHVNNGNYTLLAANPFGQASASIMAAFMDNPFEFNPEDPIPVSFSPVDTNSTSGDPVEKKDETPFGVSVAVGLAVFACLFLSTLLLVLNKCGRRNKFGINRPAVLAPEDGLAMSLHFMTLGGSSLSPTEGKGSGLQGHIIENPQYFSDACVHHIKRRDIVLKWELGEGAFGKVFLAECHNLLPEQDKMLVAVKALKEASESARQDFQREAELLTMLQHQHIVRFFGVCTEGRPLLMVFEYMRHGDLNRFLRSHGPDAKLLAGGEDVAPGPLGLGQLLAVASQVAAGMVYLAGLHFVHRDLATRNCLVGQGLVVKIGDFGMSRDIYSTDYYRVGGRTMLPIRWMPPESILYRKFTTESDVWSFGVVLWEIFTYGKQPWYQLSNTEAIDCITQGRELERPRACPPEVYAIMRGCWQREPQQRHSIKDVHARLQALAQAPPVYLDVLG

Turning to `C[C@H]1CNC(=O)c2c(N)nn3ccc(nc23)N2C[C@@H](F)C[C@@H]2c2cc(F)cnc2O1` [Example 15, (1^3E,1^4E,2^2R,2^4S,5S)-1^2-amino-2^4,3^5-difluoro-5-methyl-4-oxa-7-aza-1(5,3)-pyrazolo[1,5-a] pyrimidine--3(3,2)-pyridine-2(1,2)-pyrrolidylcyclooctanephane-8-one], in series [1], the area under the curve AUC(0-inf) was 494 ng·h/mL, the concentration peaked (Cmax) at 285 ng/mL, the time of peak concentration (Tmax) worked out at 0.58 h and the half-life is 1.53 h. For the same compound, the concentration for half-maximal inhibition (IC50) on TrkA^WT kinase stood at 0.45 ± 0.18 nM. This compound also returned a half-inhibitory concentration (IC50) in series [2] of 0.53 ± 0.08 nM.
Turning to `Nc1nn2ccc3nc2c1C(=O)NCCOc1ncc(F)cc1[C@H]1C[C@H](F)CN31` [Example 14, (1^3E,1^4E,2^2R,2^4S)-1^2-amino-2^4,3^5-difluoro-4-oxa-7-aza-1(5,3)-pyrazolo[1,5-a]pyrimidine-3(3,2)-pyridine-2 (1,2)-pyrrolidylcyclooctanephane-8-one], in series [1], the AUC(0-inf) worked out at 504 ng·h/mL, the Cmax stood at 140 ng/mL, the Tmax was determined as 1 h and the half-life was 1.81 h. Also, the IC50 against TrkA^WT kinase was found to be 0.68 ± 0.03 nM. In series [2], this compound gave a concentration for half-maximal inhibition (IC50) of 0.4 ± 0.05 nM.

In general, AUC(0-inf) refers to total exposure, with the tail of the curve extrapolated. A low value points to low exposure. What is called Cmax is the maximum level reached in the sampled fluid or tissue. Broadly, the Tmax is the time at which the peak concentration occurs. What is called half-life is the time needed for the level to fall by half in the phase considered. Lower therefore signals fast loss. The IC50 is the concentration needed to halve the response being measured. Lower therefore signals inhibition by little substance.
